pIC50: −log10 of the molar value.

Results on 19 compounds are retold here after patent US8614201B2 (Janssen Pharmaceutica NV, priority 2009, dated 2013).

Sequence of Human TRPA1 (O75762 whole entry): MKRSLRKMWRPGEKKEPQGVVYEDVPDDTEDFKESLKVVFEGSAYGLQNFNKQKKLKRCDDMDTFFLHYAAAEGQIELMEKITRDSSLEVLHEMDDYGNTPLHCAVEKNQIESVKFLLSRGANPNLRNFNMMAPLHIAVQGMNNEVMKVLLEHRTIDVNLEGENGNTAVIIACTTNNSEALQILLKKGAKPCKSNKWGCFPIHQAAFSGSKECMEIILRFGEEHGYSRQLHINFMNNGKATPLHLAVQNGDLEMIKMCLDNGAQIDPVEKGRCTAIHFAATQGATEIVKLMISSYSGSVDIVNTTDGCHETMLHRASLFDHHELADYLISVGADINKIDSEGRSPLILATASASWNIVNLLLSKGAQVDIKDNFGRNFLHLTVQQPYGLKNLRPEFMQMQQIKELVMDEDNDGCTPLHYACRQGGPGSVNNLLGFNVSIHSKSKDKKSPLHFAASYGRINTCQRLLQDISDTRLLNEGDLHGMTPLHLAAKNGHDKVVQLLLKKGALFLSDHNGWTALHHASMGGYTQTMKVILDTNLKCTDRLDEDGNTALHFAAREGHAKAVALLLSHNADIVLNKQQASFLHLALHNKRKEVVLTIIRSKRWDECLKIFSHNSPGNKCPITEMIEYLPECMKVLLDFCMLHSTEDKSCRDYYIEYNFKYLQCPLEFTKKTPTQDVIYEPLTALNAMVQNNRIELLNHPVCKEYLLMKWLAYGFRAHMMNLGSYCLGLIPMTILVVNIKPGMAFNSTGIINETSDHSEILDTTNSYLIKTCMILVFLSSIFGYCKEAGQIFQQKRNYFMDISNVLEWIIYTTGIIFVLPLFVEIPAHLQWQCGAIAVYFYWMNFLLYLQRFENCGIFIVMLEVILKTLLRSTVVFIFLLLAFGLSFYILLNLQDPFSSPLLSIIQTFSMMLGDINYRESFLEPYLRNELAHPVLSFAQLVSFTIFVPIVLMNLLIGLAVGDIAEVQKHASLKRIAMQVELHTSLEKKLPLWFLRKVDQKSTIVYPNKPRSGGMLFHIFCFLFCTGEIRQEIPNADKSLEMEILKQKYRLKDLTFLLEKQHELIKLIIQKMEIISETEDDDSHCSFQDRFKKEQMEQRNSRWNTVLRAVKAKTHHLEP

The assay addresses Human TRPA1 (Homo sapiens, UniProt O75762). In words: Alternative TRPA1 Ca2+ fluorometry assay (hTRPA1/TREx-HEK293 cells, Fluo-4, FDSS 6000). In kind it is cell-based. More on the design: expressed in transfected cells. Particulars: Fluo-4-AM, agonist 6,11-dihydro-5H-dibenzo[b,e]azepine-10-carboxylic acid methyl ester 25 nM, procedure used for Examples 184, 190 to 192, 194 to 316. The method, then: In alternative embodiments, the assay was performed using the following procedure for Examples 184, 190 to 192, and 194 to 316:
The human TRPA1 gene was cloned into the pT-Rex-Dest30 inducible vector and stably transfected in T-Rex™-293 cells (Invitrogen, Merelbeke, Belgium). This tetracycline inducible hTRPA1 expression system was used in order to prevent CA^2+ overload in the cultured cells due to sustained TRPA1 expression. hTRPA1/TREx-HEK293 cells (referred to as jTRPA1 cells in the following text) were maintained under standard sterile cell culture conditions. The culture medium for the jTRPA1-HEK cells was DMEN (Gibco BRL, Invitrogen, Merelbeke, Belgium) supplemented with 5 g/l gengticin (Gibco), 5 mL/l blasticidin (Invitorgen), 14.6 g/l L-Glutamine (200 mMl; Gibco), 5 g/l penicillin/streptomycin (5.10-6 IU/I, Gibco), 5.5 g/l pyruvic acid (Gibco) and 10% foetal calf serum (Hyclone, Logan Utah, USA).
For Ca^2+ fluorometry experiments, hTRPA1-HEK cells were resuspended in HBSS seeding medium: HBSS (with CaCl2 and MgCl2: Gibco) supplemented with 14.6 g/l L-Glutamine (200 mM; Gibco), 5 g/l penicillin/streptomycin (5.10-6 IU/l. Gibco), 5.5 g/l pyruvic acid (Gibco) and 10% foetal calf serum (heat inactivated for 30 minutes at 56° C.; Hyclone, Logan Utah, USA). The cells were seeded in poly-D-lysine-coated 384-well round bottom polypropylene plates (Costar Corning, Data Packaging, Cambridge Mass., USA) at 12000 cells/well. Fifty ng/ml tetracycline was added to induce the hTRPA1 expression 24 h before the experiment.
The cells were loaded with 5 mg/l Fluo-4-AM (Molecular Probes, Invitorgen, Merelbeke, Belgium) dissolved in HBSS seeding medium supplemented with 0.7 g/l Probenecid (Sigma) and incubated for 1 h at 37° C. and subsequently at 20° C. for 1 to 2 h. The fluorescence was measured in the FDSS 6000 imaging based plate reader (Hamamutsu Photonics K.K., Hamamutsu City, Japan). The excitation wavelength was 488 nm and the emission wavelength 540 nm. After a control period of 12 seconds the inventive compounds were added and the Ca^2+ signal was measured within 14 minutes after application. Finally, a TRPA1 agonist, 6,11-dihydro-5H-dibenzo[b,e]azepine-10-carboxylic acid methyl ester, was added at a final concentration of 25 nM. The emission ratio was calculated by dividing the emission signal (Em540) by the first EM540 signal of the control period to compensate for the background fluorescence. […] For intracellular Ca^2+ measurements, a compound stock solution (10 to 100 mM) was further diluted in DMSO in order to obtain a final 1% DMSO concentration in the extracellular solution.
Usually pIC50 stands for −log10 of the IC50, conventionally taken in molar units. Read a low pIC50 as a large IC50. As to `O=C(NCc1cc(-c2ccc(Cl)c(Cl)c2)nc(N2CCN(c3ccccc3F)CC2)n1)[C@@H]1CCCN1S(=O)(=O)c1ccc(F)cc1` [Example 248, 1-(4-Fluoro-benzenesulfonyl)-pyrrolidine-2S-carboxylic acid {6-(3,4-dichloro-phenyl)-2-[4-(2-fluoro-phenyl)-piperazin-1-yl]-pyrimidin-4-ylmethyl}-amide], the negative-log IC50 (pIC50) was roughly 6.17.
The same measure for `O=C(NCc1cc(-c2ccc(C(F)(F)F)cc2)nc(N2CCN(c3ccccc3F)CC2)n1)[C@@H]1CCCN1S(=O)(=O)c1cc(F)cc(F)c1` [Example 281, 1-(3,5-Difluoro-benzenesulfonyl)-pyrrolidine-2S-carboxylic acid [2-[4-(2-fluoro-phenyl)-piperazin-1-yl]-6-(4-trifluoromethyl-phenyl)-pyrimidin-4-ylmethyl]-amide]: 5.26; for `O=C(NCc1cc(-c2ccc(C(F)(F)F)cc2)nc(N2CCc3ccccc3C2)n1)[C@@H]1CCCN1S(=O)(=O)c1ccc(F)cc1` [Example 303, 1-(4-Fluoro-benzenesulfonyl)-pyrrolidine-2S-carboxylic acid [2-(3,4-dihydro-1H-isoquinolin-2-yl)-6-(4-trifluoromethyl-phenyl)-pyrimidin-4-ylmethyl]-amide]: roughly 5.55; for `O=C(NCc1cc(-c2ccc(C(F)(F)F)cc2)nc(N2CCN(c3ccccc3F)CC2)n1)[C@@H]1CCCN1S(=O)(=O)c1ccccc1Cl` [Example 268, 1-(2-Chloro-benzenesulfonyl)-pyrrolidine-2S-carboxylic acid [2-[4-(2-fluoro-phenyl)-piperazin-1-yl]-6-(4-trifluoromethyl-phenyl)-pyrimidin-4-ylmethyl]-amide]: less than 5.00.
The same measure for `O=C(NCc1cc(-c2ccc(C(F)(F)F)cc2)nc(N2CCN(c3ccccc3F)CC2)n1)[C@@H]1CCCN1S(=O)(=O)c1ccc(F)c(F)c1F` [Example 261, 1-(2,3,4-Trifluoro-benzenesulfonyl)-pyrrolidine-2S-carboxylic acid [2-[4-(2-fluoro-phenyl)-piperazin-1-yl]-6-(4-trifluoromethyl-phenyl)-pyrimidin-4-ylmethyl]-amide]: 5.57; for `O=C(NCc1cc(-c2ccc(C(F)(F)F)cc2)nc(N2CCN(c3ccccc3F)CC2)n1)[C@@H]1CCCN1S(=O)(=O)c1ccc(F)cc1Cl` [Example 252, 1-(2-Chloro-4-fluoro-benzenesulfonyl)-pyrrolidine-2S-carboxylic acid [2-[4-(2-fluoro-phenyl)-piperazin-1-yl]-6-(4-trifluoromethyl-phenyl)-pyrimidin-4-ylmethyl]-amide]: less than 5.00.
The same measure for `O=C(NCc1cc(-c2ccc(Br)cc2)nc(NCCN2CCOCC2)n1)[C@@H]1CCCN1S(=O)(=O)c1ccc(F)cc1` [Example 316, 1-(4-Fluoro-benzenesulfonyl)-pyrrolidine-2S-carboxylic acid [6-(4-bromo-phenyl)-2-(2-morpholin-4-yl-ethylamino)-pyrimidin-4-ylmethyl]-amide]: 5.84; for `NS(=O)(=O)c1ccc(CCNc2nc(CNC(=O)[C@@H]3CCCN3S(=O)(=O)c3ccc(F)cc3)cc(-c3ccc(C(F)(F)F)cc3)n2)cc1` [Example 199, 1-(4-Fluoro-benzenesulfonyl)-pyrrolidine-2S-carboxylic acid [2-[2-(4-sulfamoyl-phenyl)-ethylamino]-6-(4-trifluoromethyl-phenyl)-pyrimidin-4-ylmethyl]-amide]: roughly 5.48; for `O=C(NCc1cc(-c2ccc(C(F)(F)F)cc2)nc(N2CCN(c3ccccc3F)CC2)n1)[C@@H]1CCCN1S(=O)(=O)c1ccccc1` [Example 272, 1-Benzenesulfonyl-pyrrolidine-2S-carboxylic acid [2-[4-(2-fluoro-phenyl)-piperazin-1-yl]-6-(4-trifluoromethyl-phenyl)-pyrimidin-4-ylmethyl]-amide]: roughly 6.36.
Compound `O=C(NCc1cc(-c2ccc(C(F)(F)F)cc2)nc(N2CCN(c3ccccc3F)CC2)n1)[C@@H]1CCCN1S(=O)(=O)c1ccc(F)cc1` [Example 286, 1-(4-Fluoro-benzenesulfonyl)-pyrrolidine-2S-carboxylic acid [2-[4-(2-fluoro-phenyl)-piperazin-1-yl]-6-(4-trifluoromethyl-phenyl)-pyrimidin-4-ylmethyl]-amide] showed a pIC50 of roughly 6.80.
In the case of `O=C(NCc1cc(-c2ccc(C(F)(F)F)cc2)nc(N2CCN(c3ccc(F)cc3)CC2)n1)[C@@H]1CCCN1S(=O)(=O)c1ccc(F)cc1` [Example 304, 1-(4-Fluoro-benzenesulfonyl)-pyrrolidine-2S-carboxylic acid [2-[4-(4-fluoro-phenyl)-piperazin-1-yl]-6-(4-trifluoromethyl-phenyl)-pyrimidin-4-ylmethyl]-amide], the pIC50 was 6.48.
The same measure for `CN1CCCN(c2nc(CNC(=O)[C@@H]3CCCN3S(=O)(=O)c3ccc(F)cc3)cc(-c3ccc(C(F)(F)F)cc3)n2)CC1` [Example 198, 1-(4-Fluoro-benzenesulfonyl)-pyrrolidine-2S-carboxylic acid [2-(4-methyl-[1,4]diazepan-1-yl)-6-(4-trifluoromethyl-phenyl)-pyrimidin-4-ylmethyl]-amide]: roughly 5.52; for `COc1cccc(S(=O)(=O)N2CCC[C@H]2C(=O)NCc2cc(-c3ccc(C(F)(F)F)cc3)nc(N3CCN(c4ccccc4F)CC3)n2)c1` [Example 253, 1-(3-Methoxy-benzenesulfonyl)-pyrrolidine-2S-carboxylic acid [2-[4-(2-fluoro-phenyl)-piperazin-1-yl]-6-(4-trifluoromethyl-phenyl)-pyrimidin-4-ylmethyl]-amide]: less than 5.00.
The same measure for `O=C(NCc1cc(-c2ccc3c(c2)OCO3)nc(N2CCN(c3ccccn3)CC2)n1)[C@@H]1CCCN1S(=O)(=O)c1ccc(F)cc1` [Example 206, 1-(4-Fluoro-benzenesulfonyl)-pyrrolidine-2S-carboxylic acid [6-benzo[1,3]dioxol-5-yl-2-(4-pyridin-2-yl-piperazin-1-yl)-pyrimidin-4-ylmethyl]-amide]: 5.35; for `CN1CCN(c2nc(CNC(=O)[C@@H]3CCCN3S(=O)(=O)c3ccc(F)cc3)cc(-c3ccc(Br)cc3)n2)CC1` [Example 220, 1-(4-Fluoro-benzenesulfonyl)-pyrrolidine-2S-carboxylic acid [6-(4-bromo-phenyl)-2-(4-methyl-piperazin-1-yl)-pyrimidin-4-ylmethyl]-amide]: roughly 5.35.
`Cc1cccc(C)c1-c1cc(CNC(=O)[C@@H]2CCCN2S(=O)(=O)c2ccc(F)cc2)nc(N2CCN(c3ccccc3F)CC2)n1` [Example 240, 1-(4-Fluoro-benzenesulfonyl)-pyrrolidine-2S-carboxylic acid {6-(2,6-dimethyl-phenyl)-2-[4-(2-fluoro-phenyl)-piperazin-1-yl]-pyrimidin-4-ylmethyl}-amide] gave a negative logarithm of the IC50 (pIC50) of roughly 6.03.
To `CCCCNc1nc(CNC(=O)[C@@H]2CCCN2S(=O)(=O)c2ccc(F)cc2)cc(-c2ccc3c(c2)OCO3)n1` [Example 202, 1-(4-Fluoro-benzenesulfonyl)-pyrrolidine-2S-carboxylic acid (6-benzo[1,3]dioxol-5-yl-2-butylamino-pyrimidin-4-ylmethyl)-amide] belongs roughly 5.62; to `Cc1cc(C)c(S(=O)(=O)N2CCC[C@H]2C(=O)NCc2cc(-c3ccc(C(F)(F)F)cc3)nc(N3CCN(c4ccccc4F)CC3)n2)c(C)c1` [Example 275, 1-(2,4,6-Trimethyl-benzenesulfonyl)-pyrrolidine-2-carboxylic acid [2-[4-(2-fluoro-phenyl)-piperazin-1-yl]-6-(4-trifluoromethyl-phenyl)-pyrimidin-4-ylmethyl]-amide], less than 5.00; to `O=C(NCc1cc(-c2ccc3c(c2)OCO3)nc(NC2CCCC2)n1)[C@@H]1CCCN1S(=O)(=O)c1ccc(F)cc1` [Example 204, 1-(4-Fluoro-benzenesulfonyl)-pyrrolidine-2S-carboxylic acid (6-benzo[1,3]dioxol-5-yl-2-cyclopentylamino-pyrimidin-4-ylmethyl)-amide], roughly 5.57.
